# Results from ChEMBL document CHEMBL1201862, “PubChem BioAssay data set” (2004).
#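 Cells were grown in 96-well plates and exposed to each compound for 48 hours at five concentrations; endpoints were interpolated linearly between bracketing concentrations, or set to the highest concentration if not reached. GI50 marks 50% less growth.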 The source made the active and inactive calls. No stated cut-off is given here; in the data, active = GI50 up to about 1.1 µM and inactive = higher.
# Experiments:
# Assay in all cases: NCI tumour cell line growth inhibition, 48 h
# [1] = system: LOX IMVI
# [2] = system: UO-31
# [3] = system: HL-60
# [4] = system: SK-MEL-2
# [5] = system: M19-MEL
# [6] = system: SW-620
# [7] = system: RXF 393
# [8] = system: A498
# [9] = system: OVCAR-4
# [10] = system: SK-MEL-28
# [11] = system: CCRF-CEM
# [12] = system: DMS-114
# [13] = system: HCT-15
# [14] = system: XF498
# [15] = system: NCI-H460
# [16] = system: SR
# [17] = system: SK-OV-3
# [18] = system: NCI-H522
# [19] = system: OVCAR-8
# [20] = system: UACC-257
# [21] = system: NCI-H23
# [22] = system: U-251
# [23] = system: MOLT-4
# [24] = system: TK-10
# [25] = system: COLO 205
# [26] = system: KM12
# [27] = system: OVCAR-3
# [28] = system: SNB-75
# [29] = system: M14
# [30] = system: NCI-H226
# [31] = system: DMS-273
# [32] = system: HT-29
# [33] = system: HOP-62
# [34] = system: OVCAR-5
# [35] = system: UACC-62
# [36] = system: CAKI-1
# [37] = system: SNB-78
# [38] = system: EKVX
# [39] = system: KM-20L2
# [40] = system: LXFL 529
# [41] = system: HOP-18
# [42] = system: SF-539
# [43] = system: SK-MEL-5
# [44] = system: DLD-1
# [45] = system: HOP-92
# [46] = system: RPMI-8226
# [47] = system: 786-0
# [48] = system: SF-268
# [49] = system: ACHN
# [50] = system: SF-295
# [51] = system: SN12C
# [52] = system: IGROV-1
# [53] = system: K562
# [54] = system: Malme-3M
# [55] = system: SNB-19
# [56] = system: A549
# [57] = system: HCT-116
# [58] = system: HCC 2998
structure (smiles),measurement,setting,value
O=c1[nH]c(=O)n(C2CC(O)C(CO)O2)cc1C(F)(C(F)(F)F)C(F)(F)F (stereo unspecified),GI50,[1],> 100 µM (inactive)
same,GI50,[2],> 100 µM (inactive)
same,GI50,[3],> 100 µM (inactive)
same,GI50,[4],> 100 µM (inactive)
same,GI50,[5],> 100 µM (inactive)
same,GI50,[6],> 100 µM (inactive)
same,GI50,[7],> 100 µM (inactive)
same,GI50,[8],> 100 µM (inactive)
same,GI50,[9],> 100 µM (inactive)
same,GI50,[10],> 100 µM (inactive)
same,GI50,[11],> 100 µM (inactive)
same,GI50,[12],> 100 µM (inactive)
same,GI50,[13],> 100 µM
same,GI50,[14],> 100 µM (inactive)
same,GI50,[15],> 100 µM (inactive)
same,GI50,[16],> 100 µM (inactive)
same,GI50,[17],> 100 µM (inactive)
same,GI50,[18],45.2 µM (inactive)
same,GI50,[19],> 100 µM (inactive)
same,GI50,[20],> 100 µM (inactive)
same,GI50,[21],> 100 µM (inactive)
same,GI50,[22],> 100 µM (inactive)
same,GI50,[23],> 100 µM (inactive)
same,GI50,[24],> 100 µM (inactive)
same,GI50,[25],71 µM (inactive)
same,GI50,[26],> 100 µM (inactive)
same,GI50,[27],> 100 µM (inactive)
same,GI50,[28],> 100 µM (inactive)
same,GI50,[29],> 100 µM (inactive)
same,GI50,[30],> 100 µM (inactive)
same,GI50,[31],> 100 µM (inactive)
same,GI50,[32],> 100 µM (inactive)
same,GI50,[33],> 100 µM (inactive)
same,GI50,[34],> 100 µM (inactive)
same,GI50,[35],> 100 µM (inactive)
same,GI50,[36],> 100 µM (inactive)
same,GI50,[37],> 100 µM (inactive)
same,GI50,[38],> 100 µM (inactive)
same,GI50,[39],> 100 µM (inactive)
same,GI50,[40],> 100 µM (inactive)
same,GI50,[41],84.5 µM (inactive)
same,GI50,[42],> 100 µM (inactive)
same,GI50,[43],> 100 µM (inactive)
same,GI50,[44],> 100 µM (inactive)
same,GI50,[45],> 100 µM (inactive)
same,GI50,[46],45.6 µM (inactive)
same,GI50,[47],> 100 µM (inactive)
same,GI50,[48],> 100 µM (inactive)
same,GI50,[49],> 100 µM (inactive)
same,GI50,[50],> 100 µM (inactive)
same,GI50,[51],> 100 µM (inactive)
same,GI50,[52],> 100 µM (inactive)
same,GI50,[53],> 100 µM (inactive)
same,GI50,[54],> 100 µM (inactive)
same,GI50,[55],> 100 µM (inactive)
Nc1nc2c(N)cc(C(F)(F)F)cc2nc1-c1ccccc1,GI50,[1],> 100 µM (inactive)
same,GI50,[2],> 100 µM (inactive)
same,GI50,[3],1.17 µM (inactive)
same,GI50,[4],> 100 µM (inactive)
same,GI50,[5],> 100 µM (inactive)
same,GI50,[6],> 100 µM (inactive)
same,GI50,[7],> 100 µM (inactive)
same,GI50,[8],> 100 µM (inactive)
same,GI50,[9],> 100 µM (inactive)
same,GI50,[56],> 100 µM (inactive)
same,GI50,[10],> 100 µM (inactive)
same,GI50,[57],> 100 µM (inactive)
same,GI50,[11],> 100 µM (inactive)
same,GI50,[12],86.5 µM (inactive)
same,GI50,[13],> 100 µM
same,GI50,[14],50.2 µM (inactive)
same,GI50,[15],> 100 µM (inactive)
same,GI50,[16],> 100 µM (inactive)
same,GI50,[17],> 100 µM (inactive)
same,GI50,[18],85.3 µM (inactive)
same,GI50,[19],> 100 µM (inactive)
same,GI50,[20],> 100 µM (inactive)
same,GI50,[21],> 100 µM (inactive)
same,GI50,[22],> 100 µM (inactive)
same,GI50,[23],38.4 µM (inactive)
same,GI50,[24],> 100 µM (inactive)
same,GI50,[25],> 100 µM (inactive)
same,GI50,[26],> 100 µM (inactive)
same,GI50,[27],> 100 µM (inactive)
same,GI50,[28],27.2 µM (inactive)
same,GI50,[29],> 100 µM (inactive)
same,GI50,[30],> 100 µM (inactive)
same,GI50,[31],> 100 µM (inactive)
same,GI50,[33],> 100 µM (inactive)
same,GI50,[58],> 100 µM (inactive)
same,GI50,[34],> 100 µM (inactive)
same,GI50,[35],> 100 µM (inactive)
same,GI50,[36],> 100 µM (inactive)
same,GI50,[37],> 100 µM (inactive)
same,GI50,[38],4 µM (inactive)
same,GI50,[39],> 100 µM (inactive)
same,GI50,[40],64.9 µM (inactive)
same,GI50,[41],> 100 µM (inactive)
same,GI50,[42],> 100 µM (inactive)
same,GI50,[43],> 100 µM (inactive)
same,GI50,[44],> 100 µM (inactive)
same,GI50,[45],> 100 µM (inactive)
same,GI50,[47],> 100 µM (inactive)
same,GI50,[48],> 100 µM (inactive)
same,GI50,[49],> 100 µM (inactive)
same,GI50,[50],> 100 µM (inactive)
same,GI50,[51],> 100 µM (inactive)
same,GI50,[52],> 100 µM (inactive)
same,GI50,[53],> 100 µM (inactive)
same,GI50,[54],> 100 µM (inactive)
same,GI50,[55],> 100 µM (inactive)
